Laboratory results reported in patent US20230131899A1, “INHIBITORS OF MICROBIALLY INDUCED AMYLOID” (Axial Therapeutics, Inc., priority 2020, published 2023).
Read-outs that look alike come from different tables or passages of the source. Blank lines part the entries; values can stand above or below the compound they belong to.

How the values were obtained:
human α-synuclein = target: T1, human α-synuclein (Homo sapiens, UniProt P37840); assay: Cell-free Thioflavin T assay of α-synuclein aggregation (αSyn ThT Assay); assay type: biochemical; settings: αSyn 50 μM
T1 construct: the full-length gene for untagged human α-synuclein was inserted; made in house; host or cells: E. coli BL21(DE3), plasmid derived from pT7 or pET11a
Description: To assess the effects of compounds on aggregation of α-synuclein, a cell-free assay was performed using purified α-synuclein and Thioflavin T. In the assay, human α-synuclein was expressed in E. coli BL21(DE3) from a plasmid derived from pT7 or pET11a into which the full-length gene for untagged human α-synuclein was inserted. Cells were induced at OD600 0.6 with 0.8 mM IPTG for 4 hours, harvested by centrifugation and suspended in a volume of lysis buffer (10 mM Tris, pH 8.0, 1 mM EDTA, and 1 mM PMSF) equivalent to one-tenth the volume of culture and lysed by boiling for 20 minutes. Cell debris was pelleted by centrifugation, clarified lysate was treated with 10% streptomycin sulfate at 136 μL/mL followed by glacial acetic acid at 228 μL/mL, lysate was centrifuged, supernatant was transferred to a fresh tube and protein was precipitated via addition of an equal volume of saturated (100%) ammonium sulfate and incubated at 4° C. on a rocking shaker for 1 hour. The protein was pelleted via centrifugation and washed with an equal volume of 100 mM ammonium acetate in chilled ethanol, pelleted via centrifugation, washed twice with chilled ethanol, dried overnight, resuspended in 50 mM potassium phosphate buffer pH 7.3 or 10 mM Tris pH 7.4, and passed through a 50 kDa cut-off column. Immediately prior to use, the purified α-synuclein was filtered with a 0.2 μm nylon filter. The assay was conducted in 96-well black microplates with a single 1-2 mm glass bead in each well, 20-40 μM ThioflavinT, 1% DMSO, α-synuclein at 50 μM and compounds at 20-100 μM. Plates were sealed with sealing tape (ThermoFisher 232701), incubated at 37° C. in a Tecan Nano F200 plate reader with excitation at 438 nm using a 439 nm filter with a bandwidth of 8 nm, and emission at 495 nm with a 490 nm filter with a bandwidth of 10 nm. During the assay, plates were shaken continuously or were shaken for 999 seconds every 18 minutes. Readings were performed hourly for up to 73 hours. The effect of compounds on α-synuclein aggregation in the assay was determined with data at 36, 47, 48 or 72 hours or from the final timepoint of the assay, prior to or roughly near the time when ThT fluorescence plateaued in the vehicle control wells. The vehicle controls contained all components of the assay except compounds and represented the level of α-synuclein aggregation in the absence of an inhibitor or accelerator. Fluorescence values for each compound with α-synuclein were first adjusted by subtracting the average fluorescence of the compound in the absence of α-synuclein. These adjusted values were normalized by dividing them by the average fluorescence at the same timepoint in the vehicle control wells, and the average normalized fluorescence with the compound was expressed as a percentage of the average fluorescence observed in untreated controls. Percent inhibition of α-synuclein aggregation by a compound was determined by subtracting the percent average fluorescence with the compound relative to the average vehicle control from 100%. A higher positive percent inhibition reflects greater inhibition of α-synuclein aggregation, while a negative percent inhibition reflects potentiation of α-synuclein aggregation.
Alternate concentrations of Thioflavin T may be used in the assay and may affect the fluorescent signal and sensitivity of the assay. Alternate concentrations of α-synuclein may be used and such alterations may affect aggregation kinetics of α-synuclein in the assay. Alternate concentrations of compounds may be tested in the assay, and dose-responses may be evaluated. Additional reagents may be added to the assay which may affect aggregation kinetics of α-synuclein depending on their concentration, including detergents such as sodium dodecyl sulfate, sodium chloride, dithiotreitol, or bovine serum albumin. Shaking may be included at alternate intervals in the assay and may affect α-synuclein aggregation kinetics. […]

E. coli CsgA = target: T2, E. coli CsgA (Escherichia coli, UniProt P28307); assay: In vitro ThioflavinT assay of CsgA aggregation (CsgA ThT Assay); assay type: biochemical; settings: for remaining activity at 25 µM: compound 25 μM; for remaining activity at 100 µM: compound 100 μM
T2 construct: made in house; host or cells: E. coli NEB 3016 slyD::kan, pET11d
Procedure, shortened: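 Purified C-terminal His-tagged CsgA, monomerised by desalting and 30-kDa filtration, at 2-20 μM with 20-40 μM ThT in 50 mM potassium phosphate pH 7.3, 1% DMSO, compounds 3.125-200 uM; room temperature, fluorescence (ex 438/em 495 nm) read every 15 min. Background-subtracted signal expressed as percent inhibition versus vehicle at 6-6.5 or 8-9 h, or as percent control AUC.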

[1] = test system: CsgA gene expression (csgBAC promoter-GFP reporter) in E. coli UTI89; assay: In vitro live cell fluorescent reporter assay of CsgA transcription (Reporter Assay); assay type: cell-based; settings: Escherichia coli
Procedure, shortened: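 Chromosomal single-copy csgBAC promoter–GFP reporter in E. coli UTI89, started at OD600 0.003 in YESCA broth with compound (0.14–100 μM, 1% DMSO), 20 h at 27 °C. GFP (ex 485/em 525 nm) background-subtracted and normalized to vehicle; IC50 and X[50] from curve fits. OD600 tracked growth effects.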

[2] = class symbol, compounds 100 μM, read-out: αSyn ThT Assay % inhibition, activity range
[3] = mean percent inhibition relative to DMSO control, compounds 100 μM, read-out: αSyn ThT Assay % inhibition
[4] = read-out: CsgA ThT Assay (2 μM CsgA) % Control Bmax 25 μM, activity range, class symbol, CsgA 2 μM, white plates
[5] = read-out: CsgA ThT Assay (2 μM CsgA) % Control Bmax 25 μM, mean Bmax as percentage of DMSO control, CsgA 2 μM, white plates
[6] = read-out: CsgA ThT Assay (2 μM CsgA) % Control Bmax 100 μM, activity range, class symbol, CsgA 2 μM, white plates
[7] = read-out: CsgA ThT Assay (2 μM CsgA) % Control Bmax 100 μM, mean Bmax as percentage of DMSO control, CsgA 2 μM, white plates
[8] = mean % inhibition of αSyn aggregation relative to DMSO control, compounds at 100 μM, read-out: αSyn ThT Assay % Inhibition
[9] = compounds at 100 μM, class symbol, read-out: αSyn ThT Assay % Inhibition (activity range)
[10] = read-out: Reporter Assay Abs IC50 (μM), median Abs IC50 in the CsgA reporter assay, N/A = maximum expression reduction is <50% of control
[11] = read-out: Reporter Assay Abs IC50 (activity range), median Abs IC50 in the CsgA reporter assay, class symbol
[12] = read-out: CsgA ThT Assay (10 μM CsgA) % Control AUC at 1005 minutes, 25 μM (activity range), CsgA 10 μM, black plates, 1005 minutes, class symbol
[13] = read-out: CsgA ThT Assay (10 μM CsgA) % Control AUC at 1005 minutes, 25 μM, mean AUC as % of DMSO control, CsgA 10 μM, black plates, 1005 minutes
[14] = read-out: CsgA ThT Assay (10 μM CsgA) % Control AUC at 1005 minutes, 100 μM (activity range), CsgA 10 μM, black plates, 1005 minutes, class symbol
[15] = read-out: CsgA ThT Assay (10 μM CsgA) % Control AUC at 1005 minutes, 100 μM, mean AUC as % of DMSO control, CsgA 10 μM, black plates, 1005 minutes

T2 sequence (P28307 23-151): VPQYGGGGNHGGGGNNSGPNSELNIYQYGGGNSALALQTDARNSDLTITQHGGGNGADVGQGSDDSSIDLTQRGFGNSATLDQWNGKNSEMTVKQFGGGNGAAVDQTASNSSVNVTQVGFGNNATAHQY

Compound: CCCN1CC(C(=O)O)n2c(c(-c3cccc(C(F)(F)F)c3)c(Cc3cccc4ccccc34)c(N3CCCC3=O)c2=O)S1(=O)=O (centres unmarked) [Compound 151, 8-(naphthalen-1-ylmethyl)-6-oxo-7-(2-oxopyrrolidin-1-yl)-2-propyl-9-(3-(trifluoromethyl)phenyl)-3,4-dihydro-2H,6H-pyrido[1,2-e][1,2,5]thiadiazine-4-carboxylic acid 1,1-dioxide]
inhibition at 100 µM (human α-synuclein; [2]): > 60% | inhibition at 100 µM (human α-synuclein; [3]): 61% | remaining activity at 25 µM (E. coli CsgA; [4]): > 60% | remaining activity at 25 µM (E. coli CsgA; [5]): 67% | remaining activity at 100 µM (E. coli CsgA; [6]): > 60% | remaining activity at 100 µM (E. coli CsgA; [7]): 73%

inhibition at 100 µM (human α-synuclein; [8]): 13% | inhibition at 100 µM (human α-synuclein; [9]): 11 to 30%
Compound: O=C(O)C1CS(=O)(=O)c2c(-c3cccc(C(F)(F)F)c3)c(Cc3cccc4ccccc34)cc(=O)n21 (racemic) [Compound 010, 7-(naphthalen-1-ylmethyl)-5-oxo-8-(3-(trifluoromethyl)phenyl)-2,3-dihydro-5H-thiazolo[3,2-a]pyridine-3-carboxylic acid 1,1-dioxide]

Compound: O=C(O)C1CS(=O)(=O)c2c(-c3cccc(C(F)(F)F)c3)c(Cc3cccc4ccccc34)cc(=S)n21 (racemic) [Compound 014, 7-(naphthalen-1-ylmethyl)-5-thioxo-8-(3-(trifluoromethyl)phenyl)-2,3-dihydro-5H-thiazolo[3,2-a]pyridine-3-carboxylic acid 1,1-dioxide]
inhibition at 100 µM (human α-synuclein; [8]): 35% | inhibition at 100 µM (human α-synuclein; [9]): 31 to 60%

inhibition at 100 µM (human α-synuclein; [8]): 28% | inhibition at 100 µM (human α-synuclein; [9]): 11 to 30%
Compound: O=C(O)C1CNS(=O)(=O)c2c(-c3cccc(C(F)(F)F)c3)c(Cc3cccc4ccccc34)cc(=O)n21 (racemic) [Compound 009, 8-(naphthalen-1-ylmethyl)-6-oxo-9-(3-(trifluoromethyl)phenyl)-3,4-dihydro-2H,6H-pyrido[1,2-e][1,2,5]thiadiazine-4-carboxylic acid 1,1-dioxide]

Compound: CC(C)CNC(=O)c1c(Cc2cccc3ccccc23)c(-c2cccc(C(F)(F)F)c2)c2n(c1=O)C(C(=O)O)CN(C)S2(=O)=O (centres unmarked) [Compound 159, 7-(isobutylcarbamoyl)-2-methyl-8-(naphthalen-1-ylmethyl)-6-oxo-9-(3-(trifluoromethyl)phenyl)-3,4-dihydro-2H,6H-pyrido[1,2-e][1,2,5]thiadiazine-4-carboxylic acid 1,1-dioxide]
inhibition at 100 µM (human α-synuclein; [2]): > 60% | inhibition at 100 µM (human α-synuclein; [3]): 83% | remaining activity at 25 µM (E. coli CsgA; [4]): > 60% | remaining activity at 25 µM (E. coli CsgA; [5]): 64% | remaining activity at 100 µM (E. coli CsgA; [6]): > 60% | remaining activity at 100 µM (E. coli CsgA; [7]): 76%

Compound: CN1CC(C(=O)O)n2c(c(-c3cccc(C(F)(F)F)c3)c(Cc3cccc4ccccc34)cc2=O)S1(=O)=O (single isomer, unassigned) [Compound 008b, 2-methyl-8-(naphthalen-1-ylmethyl)-6-oxo-9-(3-(trifluoromethyl)phenyl)-3,4-dihydro-2H,6H-pyrido[1,2-e][1,2,5]thiadiazine-4-carboxylic acid 1,1-dioxide]
αSyn ThT Assay % Inhibition (human α-synuclein; mean % inhibition of αSyn aggregation relative to DMSO control, compounds at 100 μM): 10% | αSyn ThT Assay % Inhibition (activity range) (human α-synuclein; compounds at 100 μM, class symbol): (−) ((−) represents −10 to 10)

Compound: CN1CC(C(=O)O)n2c(c(-c3cccc(C(F)(F)F)c3)c(Cc3cccc4ccccc34)c(C(=O)N3CCCC3)c2=O)S1(=O)=O (centres unmarked) [Compound 186, 2-methyl-8-(naphthalen-1-ylmethyl)-6-oxo-7-(pyrrolidine-1-carbonyl)-9-(3-(trifluoromethyl)phenyl)-3,4-dihydro-2H,6H-pyrido[1,2-e] [1,2,5] thiadiazine-4-carboxylic acid 1,1-dioxide]
IC50 [1, 10]: 4.7 µM | IC50 ([1]; read-out: Reporter Assay Abs IC50, activity range, class symbol): 4.6 to 10 µM | remaining activity at 25 µM (E. coli CsgA; [4]): > 60% | remaining activity at 25 µM (E. coli CsgA; [5]): 117% | remaining activity at 100 µM (E. coli CsgA; [6]): > 60% | remaining activity at 100 µM (E. coli CsgA; [7]): 72%

Compound: CN1CC(C(=O)O)n2c(c(-c3cccc(C(F)(F)F)c3)c(Cc3cccc4ccccc34)c(NC3CCNCC3)c2=O)S1(=O)=O (centres unmarked) [Compound 091, 2-methyl-8-(naphthalen-1-ylmethyl)-6-oxo-7-(piperidin-4-ylamino)-9-(3-(trifluoromethyl)phenyl)-3,4-dihydro-2H,6H-pyrido[1,2-e][1,2,5]thiadiazine-4-carboxylic acid 1,1-dioxide]
IC50 [1, 11]: 4.6 to 10 µM | IC50 [1, 10]: 5.6 µM | remaining activity at 25 µM (E. coli CsgA; [12]): > 60% | remaining activity at 25 µM (E. coli CsgA; [13]): 90% | remaining activity at 100 µM (E. coli CsgA; [14]): > 60% | remaining activity at 100 µM (E. coli CsgA; [15]): 65%

Compound: C=Cc1c(Cc2cccc3ccccc23)c(-c2cccc(C(F)(F)F)c2)c2n(c1=O)C(C(=O)O)CN(C)S2(=O)=O (centres unmarked) [Compound 078, 2-methyl-8-(naphthalen-1-ylmethyl)-6-oxo-9-(3-(trifluoromethyl)phenyl)-7-vinyl-3,4-dihydro-2H,6H-pyrido[1,2-e][1,2,5]thiadiazine-4-carboxylic acid 1,1-dioxide]
IC50 [1, 11]: 4.6 to 10 µM | IC50 [1, 10]: 5.1 µM | remaining activity at 25 µM (E. coli CsgA; [12]): 11 to 31% | remaining activity at 25 µM (E. coli CsgA; [13]): 19% | remaining activity at 100 µM (E. coli CsgA; [14]): 11 to 31% | remaining activity at 100 µM (E. coli CsgA; [15]): 12%
